Assay results as given in publication PMC11784145, “Efficacy and in vitro pharmacological assessment of novel N-hydroxypyridinediones as hepatitis B virus ribonuclease H inhibitors” (Antimicrobial Agents and Chemotherapy, 2024).

Tests used:
HepDES19 cells = details: read-out: HepDES19 CC50; 72 h, MTS; highest concentration tested 100 µM; mean ± SD
Microsome stability = format: in vitro ADME, human; details: human, microsomes
Procedure: Human liver microsomes (gender pooled, 50 individuals) were purchased from BioIVT and stored at −80°C until use. […] Reactions were initiated by addition of 1.2 mM NADPH. […] Microsomal proteins were pelleted at 4,000 × g and the supernatant was analyzed via LCMS/MS. […] The ln percent remaining values were plotted against time, the negative slope was taken (k), and compound half-life (t1/2) was determined using ln2/k. Intrinsic clearance (Clint [µL/min/mg]) was calculated by (V × ln2)/t1/2, where V is the incubation volume (µL) divided by the protein concentration in the reaction (mg) ([31]).

[1] = Parallel artificial membrane permeability assay (PAMPA); format: in vitro ADME; details: for Papp 4 (PAMPA): pH 7.4, replicate 4
Procedure: Compound Papp values were determined by normalizing the experimental compound absorbance to the compounds’ absorbances at equilibrium, membrane porosity, buffer volume, and time (s). Two or more replicate assays were obtained on separate days for each pH.

[2] = Solubility limit, turbidimetric assay; format: physicochemical; details: upper limit 200 µM
Procedure: Solubility limits were determined by a turbidimetric assay, as described ([27]), with the solubility limit being defined as the compound concentration where light scattering began to rise. Two or more replicate assays were performed for each compound at each pH on different days.

[3] = system: HBV replication (HBV plus-polarity DNA strand); assay: HBV replication inhibition, strand preferential qPCR in hepDES19 cells; format: cell-based, hepatitis B virus; details: for EC50: 72 h exposure, HBV plus-polarity strand suppression, highest concentration tested 100 µM, mean ± SD, read-out: HepDES19 EC50
Procedure: HBV replication inhibition was measured in hepDES19 cells following 72 h compound exposure without compound replenishment. EC50 values were determined by HBV plus-polarity strand suppression using a strand preferential qPCR assay, as described previously ([28]). Three or more replicate values were obtained on different days.

[4] = molecular target: T1, human ribonuclease H1 (huRNase H1) (Homo sapiens, UniProt O60930); assay: Human RNase H1 inhibition, fluorescent biochemical assay
T1 construct: made in house; host or cells: Escherichia coli
T1 sequence (O60930 1-286): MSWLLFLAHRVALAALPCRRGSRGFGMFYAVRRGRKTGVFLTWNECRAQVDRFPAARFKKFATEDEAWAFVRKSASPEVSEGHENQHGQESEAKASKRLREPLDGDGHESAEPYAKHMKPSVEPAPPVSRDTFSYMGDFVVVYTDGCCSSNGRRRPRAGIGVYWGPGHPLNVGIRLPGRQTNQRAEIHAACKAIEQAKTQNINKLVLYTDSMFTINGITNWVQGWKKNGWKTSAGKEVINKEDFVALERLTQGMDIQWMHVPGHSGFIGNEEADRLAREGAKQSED
Procedure: Recombinant human ribonuclease H1 (huRNase H1) was expressed in Escherichia coli and purified by nickel affinity chromatography, as described previously ([30]). […] The heteroduplex substrate was prepared, as described by Ponzar et al. ([30]). Reactions were initiated by the addition of MgCl2 (5 mM final) and were performed on a Biotek Synergy HTX multi-mode plate reader at 28°C.
Maximum rates of fluorescence increase were calculated using the Biotek Gen5 v3.15 software and percentage activity was determined for each compound concentration by subtracting rates from no enzyme reactions and normalizing to DMSO reactions. […] Reactions were performed at least three times on separate days.

MDCK-MDR1 cells = assay: MDCK-MDR1 permeability assay; format: in vitro ADME; details: MDCK-MDR1 cells, 10 µM compound, 2 h; actively effluxed if >2
Procedure: MDCK-MDR1 cells were seeded on 96-well, high protein binding immobilon-P membrane plates (Millipore Sigma) at 2.4 × 10^4 cells per well for 4 days. Media were then decanted, and the cells were equilibrated with Hanks balanced salt solution (HBSS) supplemented with 10 mM CaCl2 and 1 mM MgCl2 for 1 h. Compound (10 µM) was then added to the apical side to assess active transport and to the basolateral side to assess active efflux. The cells were incubated with compound for 2 h with shaking at 37°C. Samples (50 µL) were retrieved from the recipient wells and mixed with 150 µL acetonitrile (ACN) and internal standard (1:1 of 200 ng/mL chloridazon:enalapril). Samples were pelleted at 4,000 × g and the supernatant was analyzed by liquid-chromatography/tandem mass spectrometry (LCMS/MS) analyses. […]. Active efflux was determined by Papp B/A/Papp A/B.
Tight junction formation was assessed by lucifer yellow permeation immediately following sample retrieval. Briefly, lucifer yellow (10 µM) was added to the apical wells and HBSS was added to the basolateral wells for 1 h with shaking at 37°C, after which sample was collected from the basolateral side and read on a Biotek Synergy HTX multi-mode plate reader with 485/20 excitation and 520/20 emission filters defined by the Center Wavelength/band-pass values. The percent lucifer yellow fluorescence was determined by subtracting the HBSS relative fluorescent units (RFU) from the sample RFU and normalizing to the lucifer yellow positive control RFU. Lucifer yellow permeation was determined to be acceptable if ≤3%.

[5] = pH 5 (fed simulated intestinal fluid)
[6] = pH 6.5 (fasted simulated intestinal fluid)

SMILES | CC50 (HepDES19 cells) [µM] | Avg Papp (PAMPA) ([1]; FeSSIF pH 5) [nm/s] | Interpretation (PAMPA Papp) ([1]; FeSSIF pH 5) | Papp 1 (PAMPA) ([1]; FeSSIF pH 5, replicate 1) [nm/s] | Papp 2 (PAMPA) ([1]; FeSSIF pH 5, replicate 2) [nm/s] | Avg Papp (PAMPA) ([1]; pH 7.4) [nm/s] | Interpretation (PAMPA Papp) ([1]; pH 7.4) | Papp 1 (PAMPA) ([1]; pH 7.4, replicate 1) [nm/s] | Papp 2 (PAMPA) ([1]; pH 7.4, replicate 2) [nm/s] | Papp 3 (PAMPA) ([1]; pH 7.4, replicate 3) [nm/s] | Average Sol (solubility limit) [2, 5] [µM] | Sol 1 (solubility limit) ([2]; pH 5, replicate 1) [µM] | Sol 2 (solubility limit) ([2]; pH 5, replicate 2) [µM] | Average Sol (solubility limit) [2, 6] [µM] | Sol 1 (solubility limit) ([2]; pH 6.5, replicate 1) [µM] | Sol 2 (solubility limit) ([2]; pH 6.5, replicate 2) [µM] | Average Sol (solubility limit) ([2]; pH 7.4 (DMEM-F12 with 10% FBS)) [µM] | Sol 1 (solubility limit) ([2]; pH 7.4, replicate 1) [µM] | Sol 2 (solubility limit) ([2]; pH 7.4, replicate 2) [µM] | HepDES19 SI (CC50/EC50) [3] | further results
CC(=NOCc1ccc(Cl)cc1)c1c(C)cc(=O)n(O)c1O [Compound 1466] | 46.6 ± 13.6 | 204 | H (H: Papp > 1*10-6) | 232 | 176 | 16.9 | H (H: Papp > 1*10-6) | 2.99 | 24.8 | 22.9 | > 200 | > 200 | > 200 | > 200 | > 200 | > 200 | > 200 | > 200 | > 200 | 130 | Half-life (Microsome stability): >30 min; EC50 [3]: 0.359 ± 0.24 µM; Selectivity of HBV replication inhibition over huRNase H1 (huRNase H1 IC50 versus HBV EC50) [4]: at least 10 fold
CC(=NOCc1ccc(C)cc1)c1c(C)cc(=O)n(O)c1O [Compound 1462] | 33.1 ± 5.24 | 101 | H (H: Papp > 1*10-6) | 147 | 55.6 | 14.4 | H (H: Papp > 1*10-6) | 5.13 | 9.71 | 28.4 | > 200 | > 200 | > 200 | > 200 | > 200 | > 200 | > 200 | > 200 | > 200 | 112 | Clearance (intrinsic clearance, Clint) (Microsome stability): 34.8 µL/min/mg; Half-life (Microsome stability): >30 min; Efflux Ratio (Papp B-A/A-B) (MDCK-MDR1 cells): 1.31; EC50 [3]: 0.295 ± 0.122 µM; Selectivity of HBV replication inhibition over huRNase H1 (huRNase H1 IC50 versus HBV EC50) [4]: at least 10 fold
CC(=NOCc1ccc(F)cc1F)c1c(C)cc(=O)n(O)c1O [Compound 1464] | 63.6 ± 27 | 362 | H (H: Papp > 1*10-6) | 144 | 501 | 24.9 | H (H: Papp > 1*10-6) | 26.2 | 23.1 | 23 | > 200 | > 200 | > 200 | > 200 | > 200 | > 200 | > 200 | > 200 | > 200 | 281 | Half-life (Microsome stability): >30 min; Efflux Ratio (Papp B-A/A-B) (MDCK-MDR1 cells): 1.04; Papp 3 (PAMPA) ([1]; FeSSIF pH 5, replicate 3): 442 nm/s; Papp 4 (PAMPA) [1]: 27.3 nm/s; Sol 3 (solubility limit) ([2]; pH 5, replicate 3): > 200 µM; EC50 [3]: 0.188 ± 0.063 µM; Selectivity of HBV replication inhibition over huRNase H1 (huRNase H1 IC50 versus HBV EC50) [4]: at least 10 fold
CC(=NOCc1cc(F)ccc1F)c1c(C)cc(=O)n(O)c1O [Compound 1810] | > 100 | 207 | H (H: Papp > 1*10-6) | 172 | 242 | 32.3 | H (H: Papp > 1*10-6) | 11.3 | 22.6 | 75.9 | 167 | 100 | > 200 | 100 | 100 | 100 | 167 | > 200 | 100 | 54.0 | Papp 4 (PAMPA) [1]: 12.9 nm/s; Papp 5 (PAMPA) ([1]; pH 7.4, replicate 5): 38.9 nm/s; Sol 3 (solubility limit) ([2]; pH 5, replicate 3): > 200 µM; Sol 3 (solubility limit) ([2]; pH 7.4, replicate 3): > 200 µM; EC50 [3]: 1.85 ± 0.758 µM; IC50 ([4]; recombinant huRNase H1, RNA:DNA heteroduplex substrate): 0.82 µM
